Active and inactive are the calls of the source.
Columns and labels:
[1] = biological target: T1, Short transient receptor potential channel 4 (Mus musculus, UniProt Q9QUQ5); experiment: TRPC4 positive allosteric modulators, dose response, cell-based, HEK293 TRPC4/mu-opioid, Fluo-4 calcium, EC20 DAMGO (AID 434941); assay type: functional
T1 sequence (Q9QUQ5 whole entry): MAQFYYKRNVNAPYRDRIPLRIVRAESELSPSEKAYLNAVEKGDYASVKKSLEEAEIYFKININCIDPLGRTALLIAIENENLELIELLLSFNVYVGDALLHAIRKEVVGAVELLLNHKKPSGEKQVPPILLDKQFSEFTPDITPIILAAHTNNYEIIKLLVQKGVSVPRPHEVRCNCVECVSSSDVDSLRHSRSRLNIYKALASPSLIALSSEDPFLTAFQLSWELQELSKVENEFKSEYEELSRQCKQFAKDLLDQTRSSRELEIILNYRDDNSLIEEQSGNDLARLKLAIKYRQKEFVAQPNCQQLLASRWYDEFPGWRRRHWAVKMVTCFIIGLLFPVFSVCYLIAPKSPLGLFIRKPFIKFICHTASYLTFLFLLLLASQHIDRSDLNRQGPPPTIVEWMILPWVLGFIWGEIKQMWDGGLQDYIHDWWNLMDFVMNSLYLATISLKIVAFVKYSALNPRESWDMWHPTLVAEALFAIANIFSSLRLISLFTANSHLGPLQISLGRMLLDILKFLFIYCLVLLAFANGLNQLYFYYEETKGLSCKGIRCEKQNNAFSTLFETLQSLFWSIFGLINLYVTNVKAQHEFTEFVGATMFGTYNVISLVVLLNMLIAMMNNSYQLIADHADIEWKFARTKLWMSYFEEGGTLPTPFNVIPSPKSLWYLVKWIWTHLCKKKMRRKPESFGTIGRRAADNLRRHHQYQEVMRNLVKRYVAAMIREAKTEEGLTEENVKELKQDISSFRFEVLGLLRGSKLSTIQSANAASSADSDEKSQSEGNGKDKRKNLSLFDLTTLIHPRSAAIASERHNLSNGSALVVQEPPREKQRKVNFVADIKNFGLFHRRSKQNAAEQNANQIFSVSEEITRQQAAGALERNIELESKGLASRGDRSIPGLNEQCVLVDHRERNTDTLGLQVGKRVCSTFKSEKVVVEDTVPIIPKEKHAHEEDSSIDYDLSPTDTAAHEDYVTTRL

[2] = biological target: Intestinal-type alkaline phosphatase (Mus musculus, UniProt P24822); experiment: PubChem AID 488785; assay type: functional
Intestinal-type alkaline phosphatase (Mus musculus, UniProt P24822), sequence (P24822 whole entry): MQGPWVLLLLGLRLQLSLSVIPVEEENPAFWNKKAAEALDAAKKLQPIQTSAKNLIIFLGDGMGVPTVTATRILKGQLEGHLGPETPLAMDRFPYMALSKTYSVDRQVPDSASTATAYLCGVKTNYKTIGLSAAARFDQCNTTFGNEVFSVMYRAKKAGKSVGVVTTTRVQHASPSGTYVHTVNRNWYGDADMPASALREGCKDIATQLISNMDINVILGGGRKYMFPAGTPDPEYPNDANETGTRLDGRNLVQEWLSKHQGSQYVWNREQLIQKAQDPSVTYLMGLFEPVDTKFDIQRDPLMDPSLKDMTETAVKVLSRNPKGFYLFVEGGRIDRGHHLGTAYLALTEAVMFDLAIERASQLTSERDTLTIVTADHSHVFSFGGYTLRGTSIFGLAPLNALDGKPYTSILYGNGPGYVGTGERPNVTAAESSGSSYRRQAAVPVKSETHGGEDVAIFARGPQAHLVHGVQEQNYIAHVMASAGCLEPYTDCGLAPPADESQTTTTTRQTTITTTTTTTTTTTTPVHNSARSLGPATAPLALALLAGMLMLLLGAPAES

[3] = biological target: T2, Alkaline phosphatase, tissue-nonspecific isozyme (Homo sapiens, UniProt P05186); experiment: TNAP enzyme inhibition by screening hits, dose response, selectivity assay for mouse IAP inhibitor project, biochemical, human TNAP, uHTS hits (AID 488906); assay type: functional
T2 sequence (P05186 whole entry): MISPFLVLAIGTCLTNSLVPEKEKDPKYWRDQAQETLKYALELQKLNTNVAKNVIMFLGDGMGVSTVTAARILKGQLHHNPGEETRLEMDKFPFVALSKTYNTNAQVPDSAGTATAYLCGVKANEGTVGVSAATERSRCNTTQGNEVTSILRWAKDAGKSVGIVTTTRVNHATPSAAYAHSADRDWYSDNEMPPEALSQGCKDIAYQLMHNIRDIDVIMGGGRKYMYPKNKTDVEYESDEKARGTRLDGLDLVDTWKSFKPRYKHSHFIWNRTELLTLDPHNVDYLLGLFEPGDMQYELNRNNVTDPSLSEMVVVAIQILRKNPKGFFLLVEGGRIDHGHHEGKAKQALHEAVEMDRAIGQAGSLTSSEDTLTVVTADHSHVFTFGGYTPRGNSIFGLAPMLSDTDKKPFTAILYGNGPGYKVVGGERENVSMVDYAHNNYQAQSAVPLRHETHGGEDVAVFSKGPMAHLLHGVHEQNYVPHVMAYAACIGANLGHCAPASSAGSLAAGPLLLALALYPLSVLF

H9c2 = experiment: cells; assay type: functional, cell-based; details: Rattus norvegicus, H9c2, Myocardium;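 further: confirmatory concentration-response retest of ultra-high-throughput screening hits for modulation of myocardial damage; cell death induced by hydrogen peroxide oxidative stress; compound pretreatment for 60 min then peroxide exposure for 2 h; potency is for protecting the cells against peroxide damage rather than for killing them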
[4] = biological target: T3, Histone-lysine N-methyltransferase NSD2 (Homo sapiens, UniProt O96028); assay type: biochemical
T3 sequence (O96028 whole entry): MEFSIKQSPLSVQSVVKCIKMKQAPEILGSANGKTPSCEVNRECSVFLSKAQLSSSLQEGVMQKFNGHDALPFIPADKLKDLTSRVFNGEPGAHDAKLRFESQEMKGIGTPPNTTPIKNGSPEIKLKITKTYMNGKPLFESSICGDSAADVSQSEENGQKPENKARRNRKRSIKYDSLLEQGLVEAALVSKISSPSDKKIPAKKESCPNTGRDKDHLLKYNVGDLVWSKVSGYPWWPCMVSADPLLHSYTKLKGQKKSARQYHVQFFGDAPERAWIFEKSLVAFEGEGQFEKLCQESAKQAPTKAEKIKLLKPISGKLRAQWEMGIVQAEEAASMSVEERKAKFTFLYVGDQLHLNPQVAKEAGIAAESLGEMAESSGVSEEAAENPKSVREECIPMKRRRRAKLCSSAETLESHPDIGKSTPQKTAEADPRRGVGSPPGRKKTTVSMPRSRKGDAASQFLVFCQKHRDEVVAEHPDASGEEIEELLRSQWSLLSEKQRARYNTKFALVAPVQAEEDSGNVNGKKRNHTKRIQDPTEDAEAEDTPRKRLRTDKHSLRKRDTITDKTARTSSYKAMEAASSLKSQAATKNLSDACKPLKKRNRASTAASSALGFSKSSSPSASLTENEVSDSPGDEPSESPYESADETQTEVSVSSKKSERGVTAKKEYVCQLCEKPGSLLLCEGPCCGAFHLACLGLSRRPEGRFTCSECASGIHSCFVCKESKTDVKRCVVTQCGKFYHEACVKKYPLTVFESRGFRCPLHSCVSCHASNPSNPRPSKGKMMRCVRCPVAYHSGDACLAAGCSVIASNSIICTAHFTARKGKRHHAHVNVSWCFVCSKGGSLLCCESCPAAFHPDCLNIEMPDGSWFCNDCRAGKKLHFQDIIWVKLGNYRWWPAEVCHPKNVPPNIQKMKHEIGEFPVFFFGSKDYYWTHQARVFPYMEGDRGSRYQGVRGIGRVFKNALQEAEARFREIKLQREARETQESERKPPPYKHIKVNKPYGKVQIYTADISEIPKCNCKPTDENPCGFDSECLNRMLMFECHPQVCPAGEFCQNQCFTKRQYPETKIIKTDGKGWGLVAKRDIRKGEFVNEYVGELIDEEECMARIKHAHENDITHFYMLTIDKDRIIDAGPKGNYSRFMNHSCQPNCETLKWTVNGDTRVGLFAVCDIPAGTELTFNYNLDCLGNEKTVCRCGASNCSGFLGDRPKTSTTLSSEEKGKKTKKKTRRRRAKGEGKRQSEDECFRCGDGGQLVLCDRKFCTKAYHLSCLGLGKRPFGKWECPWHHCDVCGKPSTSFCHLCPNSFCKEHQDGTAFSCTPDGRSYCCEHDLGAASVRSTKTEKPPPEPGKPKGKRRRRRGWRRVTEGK

[5] = biological target: Intestinal-type alkaline phosphatase (Homo sapiens, UniProt P09923); experiment: activation of human intestinal alkaline phosphatase – biochemical, dose response (AID 488873); assay type: functional
Intestinal-type alkaline phosphatase (Homo sapiens, UniProt P09923), sequence (P09923 whole entry): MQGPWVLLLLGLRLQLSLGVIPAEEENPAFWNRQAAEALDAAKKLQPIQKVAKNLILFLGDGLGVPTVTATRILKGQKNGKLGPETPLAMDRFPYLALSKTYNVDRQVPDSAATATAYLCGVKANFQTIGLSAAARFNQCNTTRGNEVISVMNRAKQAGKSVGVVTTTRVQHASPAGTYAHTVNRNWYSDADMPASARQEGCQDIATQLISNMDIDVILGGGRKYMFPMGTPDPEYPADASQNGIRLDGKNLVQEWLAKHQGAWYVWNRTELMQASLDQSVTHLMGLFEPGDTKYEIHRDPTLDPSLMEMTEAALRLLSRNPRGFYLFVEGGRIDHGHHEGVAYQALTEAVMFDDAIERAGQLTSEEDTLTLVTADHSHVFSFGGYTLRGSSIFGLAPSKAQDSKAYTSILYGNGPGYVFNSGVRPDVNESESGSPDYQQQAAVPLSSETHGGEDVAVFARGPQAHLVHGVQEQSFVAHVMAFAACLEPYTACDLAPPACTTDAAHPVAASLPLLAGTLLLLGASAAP

Beta-galactosidase = Beta-galactosidase (Escherichia coli, UniProt Q8VNN2); experiment: beta-galactosidase enzyme inhibitors and activators, dose response, artefact control for CCR6 antagonist project, biochemical, E. coli enzyme, set 3 (AID 504712); assay type: functional
Beta-galactosidase, sequence (Q8VNN2 whole entry): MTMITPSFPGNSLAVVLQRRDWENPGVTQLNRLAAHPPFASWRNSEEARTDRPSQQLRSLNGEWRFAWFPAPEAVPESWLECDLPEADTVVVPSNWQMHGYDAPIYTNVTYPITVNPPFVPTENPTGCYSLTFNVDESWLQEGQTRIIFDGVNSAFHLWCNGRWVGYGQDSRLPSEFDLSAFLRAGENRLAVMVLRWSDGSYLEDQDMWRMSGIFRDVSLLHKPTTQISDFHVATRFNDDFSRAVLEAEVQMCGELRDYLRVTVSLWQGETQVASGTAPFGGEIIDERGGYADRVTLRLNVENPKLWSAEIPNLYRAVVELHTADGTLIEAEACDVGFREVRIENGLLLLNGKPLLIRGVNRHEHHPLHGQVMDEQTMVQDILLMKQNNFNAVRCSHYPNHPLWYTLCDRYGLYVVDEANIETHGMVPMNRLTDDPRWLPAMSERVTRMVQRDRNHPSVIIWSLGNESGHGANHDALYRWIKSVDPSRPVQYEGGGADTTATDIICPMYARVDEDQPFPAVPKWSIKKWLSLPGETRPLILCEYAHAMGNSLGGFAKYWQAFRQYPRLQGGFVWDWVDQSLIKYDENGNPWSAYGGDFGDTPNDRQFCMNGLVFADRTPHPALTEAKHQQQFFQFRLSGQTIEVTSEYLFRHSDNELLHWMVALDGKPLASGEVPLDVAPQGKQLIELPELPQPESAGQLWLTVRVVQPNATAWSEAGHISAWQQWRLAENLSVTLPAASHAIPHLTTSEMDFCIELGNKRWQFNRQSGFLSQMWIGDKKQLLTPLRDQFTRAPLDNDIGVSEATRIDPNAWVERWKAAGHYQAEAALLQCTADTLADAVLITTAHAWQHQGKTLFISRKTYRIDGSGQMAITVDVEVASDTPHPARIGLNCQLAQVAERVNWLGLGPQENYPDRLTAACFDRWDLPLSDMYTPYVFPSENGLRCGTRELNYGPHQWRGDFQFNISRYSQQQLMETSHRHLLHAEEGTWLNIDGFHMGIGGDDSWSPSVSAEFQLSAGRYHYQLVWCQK

[6] = C. albicans growth with fluconazole, confirmation, fluorescence, retest (AID 2467); assay type: functional, cell-based
[7] = NIH-3T3 fibroblast cytotoxicity, dose response, cytotoxicity control, cell-based, fluorescence, Alamar Blue, secondary assay (AID 2327); assay type: functional;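 further: NIH-3T3 mouse fibroblasts cultured with fluconazole at 8 µg/mL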
Large T antigen = Large T antigen (Simian virus 40, UniProt P03070); assay type: functional, Betapolyomavirus macacae;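 further: Confirmatory-stage PubChem screen for compounds that inhibit SV40 T antigen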
Large T antigen, sequence (P03070 whole entry): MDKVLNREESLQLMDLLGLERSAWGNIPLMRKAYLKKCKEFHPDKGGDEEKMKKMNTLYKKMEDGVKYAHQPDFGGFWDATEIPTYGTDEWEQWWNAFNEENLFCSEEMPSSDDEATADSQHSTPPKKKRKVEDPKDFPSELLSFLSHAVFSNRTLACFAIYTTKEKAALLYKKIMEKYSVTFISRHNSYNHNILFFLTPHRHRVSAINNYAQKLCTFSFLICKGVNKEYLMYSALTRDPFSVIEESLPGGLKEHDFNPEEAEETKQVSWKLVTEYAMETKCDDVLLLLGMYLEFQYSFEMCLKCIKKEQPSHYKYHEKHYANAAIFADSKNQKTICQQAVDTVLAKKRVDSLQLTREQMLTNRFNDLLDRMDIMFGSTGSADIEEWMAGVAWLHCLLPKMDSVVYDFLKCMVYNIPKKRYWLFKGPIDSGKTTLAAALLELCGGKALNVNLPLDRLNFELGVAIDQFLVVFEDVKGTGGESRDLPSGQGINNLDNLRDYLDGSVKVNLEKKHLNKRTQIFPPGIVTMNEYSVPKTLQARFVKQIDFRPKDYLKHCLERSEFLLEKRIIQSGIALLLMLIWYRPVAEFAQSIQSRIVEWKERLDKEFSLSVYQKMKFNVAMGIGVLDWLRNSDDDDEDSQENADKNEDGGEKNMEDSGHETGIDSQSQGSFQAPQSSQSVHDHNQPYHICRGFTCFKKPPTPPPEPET

[8] = biological target: DNA dC->dU-editing enzyme APOBEC-3G (Homo sapiens, UniProt Q9HC16); experiment: Dose Response confirmation of small molecule APOBEC3G DNA Deaminase Inhibitors via a fluorescence-based single-stranded DNA deaminase assay. [Related pubchem assays (depositor defined):AID493012, AID493028]; assay type: functional
DNA dC->dU-editing enzyme APOBEC-3G, sequence (Q9HC16 whole entry): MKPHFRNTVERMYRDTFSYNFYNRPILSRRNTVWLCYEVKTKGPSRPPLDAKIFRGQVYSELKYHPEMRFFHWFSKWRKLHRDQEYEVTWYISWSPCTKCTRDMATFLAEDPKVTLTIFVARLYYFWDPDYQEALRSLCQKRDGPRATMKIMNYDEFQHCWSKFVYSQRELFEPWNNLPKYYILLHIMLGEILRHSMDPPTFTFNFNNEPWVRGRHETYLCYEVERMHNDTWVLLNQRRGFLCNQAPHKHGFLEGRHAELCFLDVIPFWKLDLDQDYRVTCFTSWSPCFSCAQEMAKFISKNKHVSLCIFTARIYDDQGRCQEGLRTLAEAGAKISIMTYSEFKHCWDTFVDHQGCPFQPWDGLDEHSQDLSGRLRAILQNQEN

Hexokinase HKDC1 = biological target: T4, Hexokinase HKDC1 (Homo sapiens, UniProt Q2TB90); experiment: HKDC1 hexokinase inhibitors, dose response, biochemical, W721R variant (AID 504729); assay type: functional
T4 sequence (Q2TB90 whole entry): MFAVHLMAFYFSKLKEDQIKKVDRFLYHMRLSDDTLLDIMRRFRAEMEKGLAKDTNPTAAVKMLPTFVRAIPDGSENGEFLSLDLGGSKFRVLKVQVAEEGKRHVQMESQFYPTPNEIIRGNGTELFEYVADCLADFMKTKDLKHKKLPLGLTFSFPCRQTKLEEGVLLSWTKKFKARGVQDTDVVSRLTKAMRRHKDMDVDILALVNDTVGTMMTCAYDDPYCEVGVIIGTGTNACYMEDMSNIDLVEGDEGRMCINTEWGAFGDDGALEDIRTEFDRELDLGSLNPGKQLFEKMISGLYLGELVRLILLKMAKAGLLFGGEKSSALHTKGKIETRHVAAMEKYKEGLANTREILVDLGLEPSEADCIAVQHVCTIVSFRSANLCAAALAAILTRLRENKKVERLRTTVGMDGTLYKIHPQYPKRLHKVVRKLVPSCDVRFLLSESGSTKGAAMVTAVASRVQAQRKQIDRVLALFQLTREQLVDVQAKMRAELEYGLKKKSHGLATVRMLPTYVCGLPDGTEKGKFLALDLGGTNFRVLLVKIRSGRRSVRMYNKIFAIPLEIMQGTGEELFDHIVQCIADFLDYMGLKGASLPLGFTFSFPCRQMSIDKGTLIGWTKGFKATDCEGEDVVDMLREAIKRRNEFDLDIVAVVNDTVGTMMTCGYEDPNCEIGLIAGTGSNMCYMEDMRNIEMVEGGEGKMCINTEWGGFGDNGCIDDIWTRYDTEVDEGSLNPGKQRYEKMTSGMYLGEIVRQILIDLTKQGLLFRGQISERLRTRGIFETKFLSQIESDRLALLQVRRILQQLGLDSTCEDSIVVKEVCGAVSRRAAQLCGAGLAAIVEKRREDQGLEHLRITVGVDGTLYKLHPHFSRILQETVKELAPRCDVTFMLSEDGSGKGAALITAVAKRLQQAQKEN

Streptococcus = experiment: Group A Streptococcus viability loss, dose response, counter-screen for streptokinase expression inhibitor project, luminescence, BacTiterGlo (AID 1915); assay type: functional, organism-based;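 further: potency for reduction of bacterial viability or growth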
[9] = biological target: Heat shock protein HSP 90-alpha (Homo sapiens, UniProt P07900); assay type: functional, organism-based
[10] = tested on: Streptococcus sp. 'group A'; experiment: growth inhibition of control SK(-) GAS strain, dose response, counter-screen for streptokinase expression inhibitor project, luminescence, kanamycin, BacTiterGlo, confirmation (AID 1900); assay type: functional, organism-based
CAAX prenyl protease 2 = biological target: T5, CAAX prenyl protease 2 (Saccharomyces cerevisiae S288c, UniProt Q03530); assay type: biochemical
T5 sequence (Q03530 whole entry): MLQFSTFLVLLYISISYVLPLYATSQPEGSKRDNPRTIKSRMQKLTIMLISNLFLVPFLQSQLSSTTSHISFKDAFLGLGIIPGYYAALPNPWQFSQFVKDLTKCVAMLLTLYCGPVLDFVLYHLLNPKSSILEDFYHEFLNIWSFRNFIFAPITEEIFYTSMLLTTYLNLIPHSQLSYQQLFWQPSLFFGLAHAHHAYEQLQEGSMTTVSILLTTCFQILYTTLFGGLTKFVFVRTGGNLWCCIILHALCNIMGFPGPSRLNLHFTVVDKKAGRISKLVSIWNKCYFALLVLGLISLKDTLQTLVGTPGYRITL

Vero = Vero cell cytotoxicity, cytotoxicity control for flavivirus capping enzyme inhibitors (AID 588742); assay type: functional; details: Chlorocebus sabaeus
[11] = biological target: Induced myeloid leukemia cell differentiation protein Mcl-1 (Homo sapiens, UniProt Q07820); assay type: functional
Induced myeloid leukemia cell differentiation protein Mcl-1, sequence (Q07820 whole entry): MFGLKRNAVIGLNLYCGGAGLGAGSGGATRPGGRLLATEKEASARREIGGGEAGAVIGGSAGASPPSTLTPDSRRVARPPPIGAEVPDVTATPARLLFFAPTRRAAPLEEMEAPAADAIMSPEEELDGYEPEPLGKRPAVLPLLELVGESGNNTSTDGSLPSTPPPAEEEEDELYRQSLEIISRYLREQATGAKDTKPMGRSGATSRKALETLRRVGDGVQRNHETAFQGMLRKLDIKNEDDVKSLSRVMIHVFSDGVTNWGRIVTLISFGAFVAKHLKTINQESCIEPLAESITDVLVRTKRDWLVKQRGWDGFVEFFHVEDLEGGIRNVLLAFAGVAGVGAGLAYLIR

Genome polyprotein = Genome polyprotein (dengue virus type 2, UniProt P29990); experiment: Dengue-2 NS5 methyltransferase inhibitors, primary screen, biochemical, confirmation dose response (AID 588689); assay type: functional
SUMO-activating enzyme [12] = biological target: T6, SUMO-activating enzyme (Homo sapiens, UniProt Q9UBT2); experiment: SUMOylation inhibitor hit validation, confirmation, SUMOylation inhibitor project, biochemical, AlphaScreen (AID 2018); assay type: functional
T6 sequence (Q9UBE0 whole entry): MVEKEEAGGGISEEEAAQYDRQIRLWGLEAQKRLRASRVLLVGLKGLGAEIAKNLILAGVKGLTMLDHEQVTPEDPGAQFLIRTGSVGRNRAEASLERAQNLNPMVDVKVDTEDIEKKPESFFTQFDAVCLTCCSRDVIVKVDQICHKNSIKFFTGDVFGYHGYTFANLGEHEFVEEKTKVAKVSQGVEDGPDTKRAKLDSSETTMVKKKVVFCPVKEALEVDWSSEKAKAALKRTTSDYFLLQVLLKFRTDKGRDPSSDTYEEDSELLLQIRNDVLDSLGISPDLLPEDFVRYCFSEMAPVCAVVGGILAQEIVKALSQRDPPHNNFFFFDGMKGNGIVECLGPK
T6 sequence (Q9UBT2 whole entry): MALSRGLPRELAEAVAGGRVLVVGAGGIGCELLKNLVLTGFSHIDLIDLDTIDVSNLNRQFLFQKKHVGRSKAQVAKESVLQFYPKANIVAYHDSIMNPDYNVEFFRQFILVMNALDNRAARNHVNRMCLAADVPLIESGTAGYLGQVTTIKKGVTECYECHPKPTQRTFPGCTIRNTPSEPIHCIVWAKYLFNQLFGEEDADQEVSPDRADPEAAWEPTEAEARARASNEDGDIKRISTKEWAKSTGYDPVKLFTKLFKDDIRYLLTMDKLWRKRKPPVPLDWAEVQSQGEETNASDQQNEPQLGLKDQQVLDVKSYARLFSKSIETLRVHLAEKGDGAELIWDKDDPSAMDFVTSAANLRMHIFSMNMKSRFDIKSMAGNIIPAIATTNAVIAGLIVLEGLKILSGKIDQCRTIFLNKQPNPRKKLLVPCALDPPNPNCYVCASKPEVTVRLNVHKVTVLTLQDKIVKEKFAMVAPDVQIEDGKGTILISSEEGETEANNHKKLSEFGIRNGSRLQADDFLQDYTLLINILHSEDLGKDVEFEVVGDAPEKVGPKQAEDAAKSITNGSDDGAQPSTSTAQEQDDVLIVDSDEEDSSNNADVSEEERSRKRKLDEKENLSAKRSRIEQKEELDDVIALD

SUMO-activating enzyme [13] = biological target: T6, SUMO-activating enzyme; experiment: inhibitors of in vitro SUMOylation cascade, primary screen, biochemical, HTRF, uHTS (AID 2006); assay type: protein-complex assay
[14] = biological target: G-protein coupled receptor 55 (Homo sapiens, UniProt Q9Y2T6); experiment: GPR55 antagonists blocking LPI-driven arrestin recruitment, primary screen, imaging, U2OS, beta-arrestin-GFP, LPI agonist (AID 2013); assay type: functional;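 further: antagonist potency measured as reduced agonist-driven arrestin aggregation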
G-protein coupled receptor 55, sequence (Q9Y2T6 whole entry): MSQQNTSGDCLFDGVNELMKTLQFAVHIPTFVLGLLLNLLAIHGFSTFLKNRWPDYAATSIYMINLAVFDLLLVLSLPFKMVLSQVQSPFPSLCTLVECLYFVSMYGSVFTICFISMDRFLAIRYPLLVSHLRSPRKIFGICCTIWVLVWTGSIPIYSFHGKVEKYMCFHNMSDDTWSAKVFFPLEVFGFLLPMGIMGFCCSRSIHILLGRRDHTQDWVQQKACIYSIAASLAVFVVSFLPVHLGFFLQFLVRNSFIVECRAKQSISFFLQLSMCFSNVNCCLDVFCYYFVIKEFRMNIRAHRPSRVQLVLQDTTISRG

Cc1cc(OCC(=O)N(C(C)C)C(C)C)cc(C)c1Br
EC50 [1]: 3.76 µM (active)

O=C(CN1CCN(c2ccccc2F)CC1)c1ccc(O)c(O)c1
IC50 [2]: 1.63 µM (active) | IC50 [3]: 96.8 µM (active) | IC50 (H9c2): > 79 µM (inactive) | AC50 [4]: 8.98 µM (active) | EC50 [5]: > 100 µM (inactive)

CCCCn1c(SCC(=O)N2c3ccccc3Sc3ccccc32)nc2c1c(=O)n(C)c(=O)n2C
EC50 [1]: 4.22 µM (active)

O=C(NC(=S)Nc1ccccc1O)c1ccc(Cl)cc1Cl
IC50 (Beta-galactosidase): > 66.6 µM (inactive) | EC50 [6]: 0.636 µM (active) | EC50 [7]: > 160 µM (inconclusive)

Sc1nnc(NCCCN2CCOCC2)s1
IC50 (Large T antigen): 22.6 µM (active) | IC50 [8]: 22.4 µM (active)

Cc1cccc(N2C(=O)NC(=O)/C(=C\c3cc(C)n(-c4sc5c(c4C#N)CCCC5)c3C)C2=O)c1C
IC50 (Hexokinase HKDC1): 17.1 µM (active)

O=C(Nc1nc(-c2ccccc2)c(-c2ccccc2)o1)c1ccc(F)cc1
EC50 (Streptococcus): 1.77 µM (active) | IC50 (Beta-galactosidase): > 66.6 µM (inactive) | AC50 [9]: 7.59 µM (active) | EC50 [10]: 0.894 µM (active)

O=C1C(Cl)=C(Nc2cccc(O)c2)C(=O)N1Cc1ccccc1
EC50 [1]: 3.76 µM (active)

CCn1cc(/C=C(\NC(=O)c2ccccc2Cl)C(=O)N2CCOCC2)c2ccccc21
AC50 (CAAX prenyl protease 2): 4.91 µM (active)

CC(C)c1ccc(S(=O)(=O)/N=C2/C=C(Sc3nc[nH]n3)C(=O)c3ccccc32)cc1
CC50 (Vero): 22.2 µM (active) | IC50 [11]: 1.35 µM (active) | IC50 (Hexokinase HKDC1): 2.88 µM (active) | IC50 (Genome polyprotein): 6.89 µM (active)

Cc1ccccc1C(=O)Nc1nnc(CC(=O)N/N=C/c2cn(Cc3ccccc3)c3ccccc23)s1
IC50 (SUMO-activating enzyme [12]): 16.8 µM (active) | IC50 (SUMO-activating enzyme [13]): 24.7 µM (active)

CCOC(=O)C1=C(C)N=C(C)/C(=C(/O)OC)C1c1cccc([N+](=O)[O-])c1 (stereo unspecified)
IC50 [14]: 1.47 µM (active)

— ChEMBL document CHEMBL1201862, “PubChem BioAssay data set” (2004)
